# Measurements from US7138361B2, “Herbicidal heterocycles” (E. I. du Pont de Nemours and Company, priority 2000, dated 2006).
# How the values were obtained:
# Format in all cases: in vivo
# rice (Oryza saliva) = experiment: Test C flooded paddy test; settings: for Rice plant response rating: Flooded Paddy, scale 0 to 100, 0 no effect, 100 complete control; for Plant response rating, Rice / Plant response rating (scale 0 to 100), Rice: flooded paddy test; for Plant response rating, Rice: scale 0 to 100 (0 no effect, 100 complete control)
# Outline: (§1)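 Response on a 0-to-100 scale (no effect to complete control) was assessed by eye versus controls. Plants had reached 2 leaves when treated in flooded paddy conditions. The assessment took place after 12–14 days of greenhouse growth.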
# [1] = test system: barnyardgrass (Echinochloa crus-galli); experiment: Test C flooded paddy test; settings: for Barnyardgrass plant response rating: Flooded Paddy, scale 0 to 100, 0 no effect, 100 complete control; for Plant response rating, Barnyardgrass / Plant response rating (scale 0 to 100), Barnyardgrass: flooded paddy test; for Plant response rating, Barnyardgrass: scale 0 to 100 (0 no effect, 100 complete control)
# Outline: as §1
# Sunflower [2] = experiment: Test C preemergence; settings: Rate 250 g/ha, visual evaluation after 12 to 14 days
# Sunflower [3] = experiment: Test C preemergence
# [4] = test system: Surinam grass (Brachiaria decumbens); experiment: Test C preemergence
# Outline: (§2)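 Herbicidal effect is a visual 0–100 score (100 = complete control) assigned versus untreated plants, 12 to 14 days after spraying in the greenhouse. Test compounds were applied in a non-phytotoxic, surfactant-containing solvent.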
# [5] = test system: bermudagrass (Cynodon dactylon); experiment: Test C preemergence
# Outline: as §2
# [6] = test system: morningglory (Ipomoea hederacea); experiment: Test C preemergence
# Outline: as §2
# [7] = test system: common ragweed (Ambrosia elatior); experiment: Test C preemergence
# Outline: as §2
# [8] = test system: giant foxtail (Setaria faberii); experiment: Test C preemergence
# Outline: as §2
# corn (Zea mays) = experiment: Test C preemergence
# Outline: as §2
# [9] = test system: johnsongrass (Sorghum halepense); experiment: Test C preemergence
# Outline: as §2
# [10] = test system: pigweed (Amaranthus retroflexus); experiment: Test C preemergence
# Outline: as §2
# [11] = test system: lambsquarters (Chenopodium album); experiment: Test C preemergence
# Outline: as §2
# [12] = test system: cocklebur (Xanthium strumarium); experiment: Test C preemergence
# Outline: as §2
# [13] = test system: goosegrass (Eleusine indica); experiment: Test C preemergence
# Outline: as §2
# [14] = test system: woolly cupgrass (Eriochloa villosa); experiment: Test C preemergence
# Outline: as §2
# [15] = test system: yellow nutsedge (Cyperus esculentus); experiment: Test C preemergence
# Outline: as §2
# [16] = test system: crabgrass (Digitaria sanguinalis); experiment: Test C preemergence
# Outline: as §2
# [17] = test system: velvetleaf (Abutilon theophrasti); experiment: Test C preemergence
# Outline: as §2
# Nightshade = experiment: Test C preemergence
# soybean (Glycine max) = experiment: Test C preemergence
# Outline: as §2
# [18] = Rate 16 g/ha, visually evaluated after 12 to 14 days, 0 = no effect, 100 = complete control
# [19] = under head Rate 16 g/ha, (own rate not given), after 12 to 14 days
# [20] = Rate 62 g/ha, scale 0 to 100, 0 no effect, 100 complete control
# [21] = Preemergence, Rate 500 g/ha, scale 0 to 100
# [22] = preemergence, Rate 250 g/ha, visual evaluation after 12 to 14 days
# [23] = preemergence, Rate 125 g/ha, scale 0 to 100, 0 no effect, 100 complete control
smiles,measurement,setting,value
CC(C)(C)c1ccn(C2SCN(c3cccc(OC(F)(F)F)c3)C2=O)n1 (stereo not drawn) [Compound 30],Rice plant response rating,rice (Oryza saliva); Rate 250 g/ha,80
same,Rice plant response rating,rice (Oryza saliva); Rate 500 g/ha,80
same,"Plant response rating, Rice",rice (Oryza saliva); Rate 62 g/ha,0
same,"Plant response rating, Rice",rice (Oryza saliva); Rate 125 g/ha,20
same,"Plant response rating (scale 0 to 100), Rice",rice (Oryza saliva); [18],0
same,"Plant response rating (scale 0 to 100), Rice",rice (Oryza saliva); [19],0
same,Barnyardgrass plant response rating,[1]; Rate 250 g/ha,100
same,Barnyardgrass plant response rating,[1]; Rate 500 g/ha,100
same,"Plant response rating, Barnyardgrass",[1]; Rate 62 g/ha,100
same,"Plant response rating, Barnyardgrass",[1]; Rate 125 g/ha,100
same,"Plant response rating (scale 0 to 100), Barnyardgrass",[1]; [18],80
same,"Plant response rating (scale 0 to 100), Barnyardgrass",[1]; [19],60
same,"Plant response rating (0 to 100), Sunflower",Sunflower [2],80
same,"Plant response rating, Sunflower",Sunflower [3]; [20],0
same,"Plant response rating, Sunflower","Sunflower [3]; Rate 500 g/ha, scale 0 to 100",100
same,"Plant response rating, Surinam grass",[4]; [21],60
same,"Plant response rating, Surinam grass",[4]; [20],20
same,"Plant response rating (0 to 100), Surinam grass",[4]; [22],40
same,"Plant response rating, Surinam grass",[4]; [23],40
same,"Plant response rating, Bermudagrass",[5]; [21],100
same,"Plant response rating, Bermudagrass",[5]; [20],100
same,"Plant response rating (0 to 100 where 0 is no effect and 100 is complete control), Bermudagrass",[5]; [22],100
same,"Plant response rating, Bermudagrass",[5]; [23],100
same,"Plant response rating, Morningglory",[6]; [21],80
same,"Plant response rating, Morningglory",[6]; [20],30
same,"Plant response rating (0 to 100), Morningglory",[6]; [22],80
same,"Plant response rating, Morningglory",[6]; [23],30
same,"Plant response rating, Ragweed, Common",[7]; [21],100
same,"Plant response rating, Ragweed, Common",[7]; [20],0
same,"Plant response rating (0 to 100), Ragweed, Common",[7]; [22],90
same,"Plant response rating, Ragweed, Common",[7]; [23],90
same,"Plant response rating, Foxtail, Giant",[8]; [21],100
same,"Plant response rating, Foxtail, Giant",[8]; [20],80
same,"Plant response rating (0 to 100), Foxtail, Giant",[8]; [22],90
same,"Plant response rating, Foxtail, Giant",[8]; [23],60
same,"Plant response rating, Corn",corn (Zea mays); [21],50
same,"Plant response rating, Corn",corn (Zea mays); [20],30
same,"Plant response rating (0 to 100), Corn",corn (Zea mays); [22],50
same,"Plant response rating, Corn",corn (Zea mays); [23],40
same,"Plant response rating, Johnsongrass",[9]; [21],100
same,"Plant response rating, Johnsongrass",[9]; [20],30
same,"Plant response rating (0 to 100), Johnsongrass",[9]; [22],90
same,"Plant response rating, Johnsongrass",[9]; [23],40
same,"Plant response rating, Pigweed",[10]; [21],100
same,"Plant response rating, Pigweed",[10]; [20],90
same,"Plant response rating (0 to 100), Pigweed",[10]; [22],90
same,"Plant response rating, Pigweed",[10]; [23],50
same,"Plant response rating, Lambsquarters",[11]; [21],100
same,"Plant response rating, Lambsquarters",[11]; [20],100
same,"Plant response rating (0 to 100), Lambsquarters",[11]; [22],100
same,"Plant response rating, Lambsquarters",[11]; [23],100
same,"Plant response rating, Cocklebur",[12]; [21],80
same,"Plant response rating, Cocklebur",[12]; [20],0
same,"Plant response rating (0 to 100), Cocklebur",[12]; [22],0
same,"Plant response rating, Cocklebur",[12]; [23],0
same,"Plant response rating, Goosegrass",[13]; [21],100
same,"Plant response rating, Goosegrass",[13]; [20],100
same,"Plant response rating (0 to 100), Goosegrass",[13]; [22],100
same,"Plant response rating, Goosegrass",[13]; [23],100
same,"Plant response rating, Cupgrass, Woolly",[14]; [21],100
same,"Plant response rating, Cupgrass, Woolly",[14]; [20],70
same,"Plant response rating (0 to 100), Cupgrass, Woolly",[14]; [22],90
same,"Plant response rating, Cupgrass, Woolly",[14]; [23],70
same,"Plant response rating, Nutsedge",[15]; [21],40
same,"Plant response rating, Nutsedge",[15]; [20],20
same,"Plant response rating (0 to 100), Nutsedge",[15]; [22],40
same,"Plant response rating, Crabgrass",[16]; [21],100
same,"Plant response rating, Crabgrass",[16]; [20],100
same,"Plant response rating (0 to 100), Crabgrass",[16]; [22],100
same,"Plant response rating, Crabgrass",[16]; [23],100
same,"Plant response rating, Velvetleaf",[17]; [21],30
same,"Plant response rating, Velvetleaf",[17]; [20],0
same,"Plant response rating (0 to 100), Velvetleaf",[17]; [22],0
same,"Plant response rating, Velvetleaf",[17]; [23],0
same,"Plant response rating, Nightshade",Nightshade; [20],80
same,"Plant response rating, Nightshade","Nightshade; Rate 125 g/ha, scale 0 to 100, 0 no effect, 100 complete control",90
same,"Plant response rating, Nightshade","Nightshade; Rate 500 g/ha, scale 0 to 100",100
same,"Plant response rating, Soybean",soybean (Glycine max); [21],70
same,"Plant response rating, Soybean",soybean (Glycine max); [20],30
same,"Plant response rating (0 to 100), Soybean",soybean (Glycine max); [22],70
same,"Plant response rating, Soybean",soybean (Glycine max); [23],70
